Assay results reported in ChEMBL document CHEMBL1159296, “A Revised Structure for Rhinacanthone” (1995).

Test system: Pyricularia oryzae
Test: Antifungal activity against Pyricularia oryzae assessed as inhibition of spore germination at 10 ppm
Type: functional

Structure (SMILES): CC1(C)COC2=C(C1)C(=O)C(=O)c1ccccc12 [RHINACANTHONE]
- inhibition at 10 ppm: 100%
